Reference: patent publication US11311522B1 (Cavion, Inc., priority 2018, dated 2022)
Like-named read-outs stand apart in the source and are kept apart here.

Columns and labels:
[1] = T-CALM: plasma concentrations by 5-in-1 LC/MS/MS; assay type: in vivo, human; settings: for Plasma concentration, mean: trough
Procedure: Additionally, at Visit 4, a post-dose sample will be collected as close to 4 hours post-dose as possible, but within the window of 4-6 hours post-dose (i.e., a total of two PK samples are collected at Visit 4.)
Assay performances were satisfactory and met acceptance criteria for system performance suitability, quantitation range, calibration linearity, assay accuracy and precision, and assay recovery.

[2] = Phase 1 single-dose pharmacokinetics (PN001, PN002/Part I, PN003, PN005); assay type: in vivo, human; settings: 8 mg CX-8998
[3] = Off-target panel of enzyme and receptor binding sites, ion channels, transporters; settings: 10 μM, 87 targets
[4] = Single-dose toxicokinetic study in dogs; assay type: in vivo; settings: dog, plasma, po, 800 mg/kg
[5] = In vitro plasma protein binding, rat; assay type: in vitro ADME
From the text: CX-8998 distributes readily to the brain in rats and to brain and cerebral spinal fluid (CSF) in dogs.

[6] = Brain penetration in male rats; assay type: in vivo; settings: rat, brain and plasma, oral, 25 mg/kg, read-out: Brain-to-plasma ratio
CYP2C9 = target: T1, CYP2C9 (Homo sapiens, UniProt P11712); test: In vitro metabolism (liver microsomes, hepatocytes, recombinant CYPs, anti-CYP antibodies); assay type: in vitro ADME; settings: recombinant CYP2C9
T1 construct: host or cells: pooled liver microsomes, hepatocytes and recombinant CYP enzymes
From the text: (§1) Glucuronide conjugates of the oxygenated metabolites are detected in human, monkey, and dog hepatocyte preparations. […] However, the abundance of CYP3A5, CYP2C19, and CYP2D6 in human liver microsomes is low (2%-5%) relative to the primary contributors, CYP3A4 (˜30%) and CYP2C9 (˜20%). […] Information on reproductive and developmental toxicology was obtained in a 28-day pivotal female fertility study in rats and in preliminary embryo-fetal development studies in rats and rabbits.

CYP2B6 = CYP2B6 mRNA induction in human hepatocytes; assay type: in vitro ADME
From the text: as §1

[7] = for Day 90 Free Margin for AUC24 at NOAEL for Dog 90-Day Toxicology / Day 90 Free Plasma AUC24 at NOAEL for Dog 90-Day Toxicology: Beagle; for Day 90 Free Plasma AUC24 at NOAEL for Dog 90-Day Toxicology: 30 mg/kg/day; for Day 90 Free Plasma AUC24 at NOAEL for Rat 90-Day Toxicology: 300 mg/kg/day
in vivo = settings: female, rat, po, 10 mg/kg/day
clinical = settings: human, plasma, oral, 8 mg
From the text: Subjects will be screened for study eligibility within 28 days before administration of the first dose of study drug. Subjects who meet the study eligibility criteria will be admitted to the clinical research unit in the afternoon of the day before administration of the first dose of study drug (Period 1/Day −1).
Treatments A, B, and C will be separated by a minimum 7-day washout period. […] Administration of Treatment D may be separated from administration of Treatments A, B, and C by approximately 4 weeks to allow for analysis of the bioanalytical samples from the first 3 treatments.

[8] = Phase 1 multiple-dose pharmacokinetics (PN002/Part II); settings: human, plasma
[9] = Crossover bioavailability study IR vs MR1 vs MR2 capsules: PK; parameters: AUC72hr: unit not given beside the values; settings: plasma
[10] = following a single 8 mg dose of MR1 CX-8998
[11] = following a single 8 mg dose of MR2 CX-8998

T1 sequence (P11712 whole entry): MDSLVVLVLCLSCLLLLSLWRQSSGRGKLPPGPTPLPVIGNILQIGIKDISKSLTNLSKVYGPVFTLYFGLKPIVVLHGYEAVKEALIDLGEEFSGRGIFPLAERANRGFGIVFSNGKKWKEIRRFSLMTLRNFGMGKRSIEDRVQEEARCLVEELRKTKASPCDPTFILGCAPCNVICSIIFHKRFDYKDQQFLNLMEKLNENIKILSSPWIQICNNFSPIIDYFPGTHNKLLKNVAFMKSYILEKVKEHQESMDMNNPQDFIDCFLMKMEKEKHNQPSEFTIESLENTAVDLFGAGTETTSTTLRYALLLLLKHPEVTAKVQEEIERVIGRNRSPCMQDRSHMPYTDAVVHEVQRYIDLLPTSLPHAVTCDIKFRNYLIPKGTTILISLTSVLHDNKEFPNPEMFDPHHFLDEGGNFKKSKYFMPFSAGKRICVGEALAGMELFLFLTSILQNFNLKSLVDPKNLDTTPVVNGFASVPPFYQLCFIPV

SMILES: C[C@@H](NC(=O)Cc1ccc(C(C)(C)O)cc1)c1ccc(OCC(F)(F)F)cn1 [M02]
- Plasma concentration, mean ([1]; Visit 2 (Day 8), 4 mg BID): 168 nM
- Plasma concentration, mean ([1]; Visit 3 (Day 15), 8 mg BID): 325 nM
- Plasma concentration, mean ([1]; Visit 4 (Day 28), 10 mg BID): 406 nM
- concentration at 4 h ([1]; human, plasma, oral, Visit 4 (Day 28), 10 mg BID, 4 hours post-dose): 438 nM
- AUCinf, middle-aged and elderly female vs male subjects [2]: 11% lower
- Cmax, middle-aged and elderly female vs male subjects [2]: 2% higher
- Off-target effects (≥50% inhibition or stimulation) [3]: No significant results
- Tmax ([4]; female): 8 h
- Tmax ([4]; male): 8 h
- fraction unbound ([5]; rat plasma, read-out: In vitro plasma protein binding (converted)): 0.29
- fraction unbound ([5]; rats, read-out: free fraction): 0.29
- Kp at 2 h [6]: 0.32
- KM for CYP2C9 reactions (formation) (CYP2C9): ~3 µM
- CYP2B6 induction (CYP2B6): mild to moderate inducers
- Day 90 Free Margin for AUC24 at NOAEL for Rat 90-Day Toxicology ([7]; Female rats vs human 10 mg BID): 129
- Day 90 Free Margin for Cmax at NOAEL for Rat 90-Day Toxicology ([7]; Male rats vs human 10 mg BID (fed)): 117
- Day 90 Free Margin for AUC24 at NOAEL for Dog 90-Day Toxicology ([7]; female): 33
- Day 90 Free Plasma AUC24 at NOAEL for Dog 90-Day Toxicology ([7]; female): 37,620 nM · hr
- Day 90 Free Plasma AUC24 at NOAEL for Rat 90-Day Toxicology ([7]; female, rat): 148,190 nM · hr
- Day 90 Free Margin for AUC24 at NOAEL for Dog 90-Day Toxicology ([7]; male): 33
- Day 90 Free Plasma AUC24 at NOAEL for Dog 90-Day Toxicology ([7]; male): 38,340 nM · hr
- Day 90 Free Margin for AUC24 at NOAEL for Rat 90-Day Toxicology ([7]; male, rat): 65
- Day 90 Free Plasma AUC24 at NOAEL for Rat 90-Day Toxicology ([7]; male, rat): 74,820 nM · hr
- AUC (in vivo): 31.7 µM·h
- Cmax (in vivo): 5400 nM
- AUC(0-t) (clinical): 3.67 µM·h
- Cmax (clinical): 122 nM
- half-life ([8]; 2 mg): 15 h
- AUC ([8]; 2 mg, AUC24, M02, Day 7, CX-8998 2 mg once daily): 0.93 µM·h
- Cmax ([8]; 2 mg, M02, Day 7, CX-8998 2 mg once daily): 54 nM
- half-life ([8]; 4 mg): 15.4 h
- AUC ([8]; 4 mg, AUC24, M02, Day 7, CX-8998 4 mg once daily): 1.86 µM·h
- Cmax ([8]; 4 mg, M02, Day 7, CX-8998 4 mg once daily): 106 nM
- half-life ([8]; 8 mg): 12.2 h
- AUC ([8]; 8 mg, AUC24, M02, Day 7, CX-8998 8 mg once daily): 3.54 µM·h
- Cmax ([8]; 8 mg, M02, Day 7, CX-8998 8 mg once daily): 219 nM
- half-life ([8]; 12 mg): 14.5 h
- AUC ([8]; 12 mg, AUC24, M02, Day 7, CX-8998 12 mg once daily): 4.55 µM·h
- Cmax ([8]; 12 mg, M02, Day 7, CX-8998 12 mg once daily): 287 nM
- half-life ([8]; 18 mg): 12.8 h
- AUC ([8]; 18 mg, AUC24, M02, Day 7, CX-8998 18 mg once daily): 7.97 µM·h
- Cmax ([8]; 18 mg, M02, Day 7, CX-8998 18 mg once daily): 481 nM
- half-life ([8]; male, oral): 12.2 to 15.4 h
- Tmax ([9]; following a single 8 mg dose of IR CX-8998): 5 h
- AUC72hr [9, 10]: 3343
- Cmax [9, 10]: 94 nM
- Tmax [9, 10]: 11 h
- AUC72hr [9, 11]: 3142
- Cmax [9, 11]: 73 nM
- Tmax [9, 11]: 16 h
